According to ChEMBL document CHEMBL1201862, “PubChem BioAssay data set” (2004):
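Following 48 hours of exposure in 96-well plates, responses at five concentrations were used to interpolate endpoints linearly. GI50 marks 50% less growth.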 Active and inactive are the calls of the source. No stated cut-off is given here; in the data, active = GI50 up to about 1.1 µM and inactive = higher.

Assays:
Experiment in all cases: NCI anticancer screen, dose series, 48 h
NCI-H460 = system: NCI-H460
NCI-H23 = system: NCI-H23
SF-295 = system: SF-295
OVCAR-8 = system: OVCAR-8
SW-620 = system: SW-620
786-0 = system: 786-0
OVCAR-4 = system: OVCAR-4
SK-OV-3 = system: SK-OV-3
DU-145 = system: DU-145
HOP-62 = system: HOP-62
SF-539 = system: SF-539
UACC-257 = system: UACC-257
LOX IMVI = system: LOX IMVI
CCRF-CEM = system: CCRF-CEM
NCI/ADR-RES = system: NCI/ADR-RES
NCI-H226 = system: NCI-H226
TK-10 = system: TK-10
A498 = system: A498
IGROV-1 = system: IGROV-1
RPMI-8226 = system: RPMI-8226
PC-3 = system: PC-3
U-251 = system: U-251
OVCAR-3 = system: OVCAR-3
SNB-19 = system: SNB-19
UO-31 = system: UO-31
SF-268 = system: SF-268
SK-MEL-28 = system: SK-MEL-28
ACHN = system: ACHN
MDA-MB-231 = system: MDA-MB-231
NCI-H522 = system: NCI-H522
KM12 = system: KM12
MDA-N = system: MDA-N
HL-60 = system: HL-60
T47D = system: T47D
SR = system: SR
A549 = system: A549
HCT-15 = system: HCT-15
K562 = system: K562
Hs-578T = system: Hs-578T
HCT-116 = system: HCT-116
UACC-62 = system: UACC-62
RXF 393 = system: RXF 393
Malme-3M = system: Malme-3M
COLO 205 = system: COLO 205
MCF7 = system: MCF7
BT-549 = system: BT-549
HOP-92 = system: HOP-92
SK-MEL-2 = system: SK-MEL-2
SN12C = system: SN12C
SNB-75 = system: SNB-75
MOLT-4 = system: MOLT-4
EKVX = system: EKVX
M14 = system: M14
MDA-MB-435 = system: MDA-MB-435
CAKI-1 = system: CAKI-1
HT-29 = system: HT-29
OVCAR-5 = system: OVCAR-5
SK-MEL-5 = system: SK-MEL-5
HCC 2998 = system: HCC 2998

SMILES: CN(CCCCN1CCCC1)CCCN(C)C(=O)Cc1ccc(Cl)c(Cl)c1
- GI50 (NCI-H460): 16.3 µM (inactive)
- GI50 (NCI-H23): 18 µM (inactive)
- GI50 (SF-295): 19.3 µM (inactive)
- GI50 (OVCAR-8): 24.4 µM (inactive)
- GI50 (SW-620): 17.7 µM (inactive)
- GI50 (786-0): 12.9 µM (inactive)
- GI50 (OVCAR-4): 20 µM (inactive)
- GI50 (SK-OV-3): 33.3 µM (inactive)
- GI50 (DU-145): 37.1 µM (inactive)
- GI50 (HOP-62): 13.9 µM (inactive)
- GI50 (SF-539): 7.38 µM (inactive)
- GI50 (UACC-257): 3.29 µM (inactive)
- GI50 (LOX IMVI): 11.9 µM (inactive)
- GI50 (CCRF-CEM): 4.74 µM (inactive)
- GI50 (NCI/ADR-RES): > 100 µM (inactive)
- GI50 (NCI-H226): 26.9 µM (inactive)
- GI50 (TK-10): 17.7 µM (inactive)
- GI50 (A498): 15.8 µM (inactive)
- GI50 (IGROV-1): 20.2 µM (inactive)
- GI50 (RPMI-8226): 5.85 µM (inactive)
- GI50 (PC-3): 19.1 µM (inactive)
- GI50 (U-251): 16 µM (inactive)
- GI50 (OVCAR-3): 19.1 µM (inactive)
- GI50 (SNB-19): 23.7 µM (inactive)
- GI50 (UO-31): 1.95 µM (inactive)
- GI50 (SF-268): 26.7 µM (inactive)
- GI50 (SK-MEL-28): 1.79 µM (inactive)
- GI50 (ACHN): 35.7 µM (inactive)
- GI50 (MDA-MB-231): 10.2 µM (inactive)
- GI50 (NCI-H522): 13.1 µM (inactive)
- GI50 (KM12): 12.5 µM (inactive)
- GI50 (MDA-N): 4.27 µM (inactive)
- GI50 (HL-60): 15.3 µM (inactive)
- GI50 (T47D): 21 µM (inactive)
- GI50 (SR): 3.3 µM (inactive)
- GI50 (A549): 18.7 µM (inactive)
- GI50 (HCT-15): 27.3 µM
- GI50 (K562): 3.05 µM (inactive)
- GI50 (Hs-578T): 20.6 µM (inactive)
- GI50 (HCT-116): 13.2 µM (inactive)
- GI50 (UACC-62): 4.33 µM (inactive)
- GI50 (RXF 393): 12.7 µM (inactive)
- GI50 (Malme-3M): 18.8 µM (inactive)
- GI50 (COLO 205): 11.9 µM (inactive)
- GI50 (MCF7): 17.4 µM (inactive)
- GI50 (BT-549): 16 µM (inactive)
- GI50 (HOP-92): 4.57 µM (inactive)
- GI50 (SK-MEL-2): 7.94 µM (inactive)
- GI50 (SN12C): 17.5 µM (inactive)
- GI50 (SNB-75): 20.7 µM (inactive)
- GI50 (MOLT-4): 8.91 µM (inactive)
- GI50 (EKVX): 19.5 µM (inactive)
- GI50 (M14): 17 µM (inactive)
- GI50 (MDA-MB-435): 2.56 µM (inactive)
- GI50 (CAKI-1): 21.1 µM (inactive)
- GI50 (HT-29): 4.45 µM (inactive)
- GI50 (OVCAR-5): 29.6 µM (inactive)
- GI50 (SK-MEL-5): 9.98 µM (inactive)
- GI50 (HCC 2998): 3.62 µM (inactive)

SMILES: CCOP1(=O)CC(C)=C(Cl)C(O)C1 (configuration not stated)
- GI50 (NCI-H460): > 100 µM (inactive)
- GI50 (NCI-H23): > 100 µM (inactive)
- GI50 (SF-295): > 100 µM (inactive)
- GI50 (OVCAR-8): > 100 µM (inactive)
- GI50 (SW-620): > 100 µM (inactive)
- GI50 (786-0): > 100 µM (inactive)
- GI50 (OVCAR-4): > 100 µM (inactive)
- GI50 (SK-OV-3): > 100 µM (inactive)
- GI50 (DU-145): > 100 µM (inactive)
- GI50 (HOP-62): > 100 µM (inactive)
- GI50 (SF-539): > 100 µM (inactive)
- GI50 (UACC-257): > 100 µM (inactive)
- GI50 (LOX IMVI): > 100 µM (inactive)
- GI50 (CCRF-CEM): > 100 µM (inactive)
- GI50 (NCI/ADR-RES): > 100 µM (inactive)
- GI50 (NCI-H226): > 100 µM (inactive)
- GI50 (TK-10): > 100 µM (inactive)
- GI50 (A498): > 100 µM (inactive)
- GI50 (IGROV-1): > 100 µM (inactive)
- GI50 (RPMI-8226): > 100 µM (inactive)
- GI50 (PC-3): > 100 µM (inactive)
- GI50 (U-251): > 100 µM (inactive)
- GI50 (OVCAR-3): > 100 µM (inactive)
- GI50 (SNB-19): > 100 µM (inactive)
- GI50 (UO-31): > 100 µM (inactive)
- GI50 (SF-268): > 100 µM (inactive)
- GI50 (SK-MEL-28): > 100 µM (inactive)
- GI50 (ACHN): > 100 µM (inactive)
- GI50 (MDA-MB-231): > 100 µM (inactive)
- GI50 (NCI-H522): > 100 µM (inactive)
- GI50 (KM12): > 100 µM (inactive)
- GI50 (MDA-N): > 100 µM (inactive)
- GI50 (HL-60): > 100 µM (inactive)
- GI50 (T47D): > 100 µM (inactive)
- GI50 (SR): > 100 µM (inactive)
- GI50 (A549): > 100 µM (inactive)
- GI50 (HCT-15): > 100 µM
- GI50 (K562): > 100 µM (inactive)
- GI50 (Hs-578T): > 100 µM (inactive)
- GI50 (HCT-116): > 100 µM (inactive)
- GI50 (UACC-62): > 100 µM (inactive)
- GI50 (RXF 393): > 100 µM (inactive)
- GI50 (Malme-3M): > 100 µM (inactive)
- GI50 (COLO 205): > 100 µM (inactive)
- GI50 (MCF7): > 100 µM (inactive)
- GI50 (BT-549): > 100 µM (inactive)
- GI50 (HOP-92): > 100 µM (inactive)
- GI50 (SK-MEL-2): > 100 µM (inactive)
- GI50 (SN12C): > 100 µM (inactive)
- GI50 (SNB-75): 40.3 µM (inactive)
- GI50 (MOLT-4): > 100 µM (inactive)
- GI50 (EKVX): > 100 µM (inactive)
- GI50 (M14): > 100 µM (inactive)
- GI50 (MDA-MB-435): > 100 µM (inactive)
- GI50 (CAKI-1): > 100 µM (inactive)
- GI50 (HT-29): > 100 µM (inactive)
- GI50 (OVCAR-5): > 100 µM (inactive)
- GI50 (SK-MEL-5): > 100 µM (inactive)
- GI50 (HCC 2998): > 100 µM (inactive)

SMILES: O=C1C(Cl)=C(NCCO)C(=O)c2c(O)ccc(O)c21
- GI50 (NCI-H460): 1.85 µM (inactive)
- GI50 (NCI-H23): 2.6 µM (inactive)
- GI50 (SF-295): 1.95 µM (inactive)
- GI50 (OVCAR-8): 3.84 µM (inactive)
- GI50 (SW-620): 2.37 µM (inactive)
- GI50 (786-0): 5.53 µM (inactive)
- GI50 (OVCAR-4): 0.6 µM (active)
- GI50 (SK-OV-3): > 10 µM (inactive)
- GI50 (DU-145): 2.36 µM (inactive)
- GI50 (HOP-62): 3.28 µM (inactive)
- GI50 (SF-539): 2.52 µM (inactive)
- GI50 (UACC-257): 1.33 µM (inactive)
- GI50 (LOX IMVI): 1.64 µM (inactive)
- GI50 (CCRF-CEM): 4.14 µM (inactive)
- GI50 (NCI/ADR-RES): 5.18 µM (inactive)
- GI50 (NCI-H226): > 10 µM (inactive)
- GI50 (TK-10): > 10 µM (inactive)
- GI50 (A498): 1.36 µM (inactive)
- GI50 (IGROV-1): 2.49 µM (inactive)
- GI50 (RPMI-8226): 3.12 µM (inactive)
- GI50 (PC-3): 2.78 µM (inactive)
- GI50 (U-251): 6.27 µM (inactive)
- GI50 (OVCAR-3): 2.76 µM (inactive)
- GI50 (SNB-19): 5.33 µM (inactive)
- GI50 (UO-31): 6.7 µM (inactive)
- GI50 (SF-268): 3.97 µM (inactive)
- GI50 (SK-MEL-28): 1.92 µM (inactive)
- GI50 (ACHN): 5.01 µM (inactive)
- GI50 (MDA-MB-231): 1.95 µM (inactive)
- GI50 (NCI-H522): > 10 µM (inactive)
- GI50 (KM12): 2.05 µM (inactive)
- GI50 (MDA-N): 1.77 µM (inactive)
- GI50 (HL-60): 2.6 µM (inactive)
- GI50 (T47D): 4.24 µM (inactive)
- GI50 (SR): 2.41 µM (inactive)
- GI50 (A549): 1.87 µM (inactive)
- GI50 (HCT-15): 2.53 µM
- GI50 (K562): 2.59 µM (inactive)
- GI50 (Hs-578T): 6.56 µM (inactive)
- GI50 (HCT-116): 1.95 µM (inactive)
- GI50 (UACC-62): 1.7 µM (inactive)
- GI50 (RXF 393): 1.96 µM (inactive)
- GI50 (Malme-3M): 1.4 µM (inactive)
- GI50 (COLO 205): 1.74 µM (inactive)
- GI50 (MCF7): 1.93 µM (inactive)
- GI50 (BT-549): 4.26 µM (inactive)
- GI50 (HOP-92): > 10 µM (inactive)
- GI50 (SK-MEL-2): 3.02 µM (inactive)
- GI50 (SN12C): 2.56 µM (inactive)
- GI50 (SNB-75): 4.38 µM (inactive)
- GI50 (MOLT-4): 3.33 µM (inactive)
- GI50 (EKVX): 6.37 µM (inactive)
- GI50 (M14): 2.16 µM (inactive)
- GI50 (MDA-MB-435): 2.17 µM (inactive)
- GI50 (CAKI-1): > 10 µM (inactive)
- GI50 (HT-29): 2.48 µM (inactive)
- GI50 (OVCAR-5): 2.37 µM (inactive)
- GI50 (SK-MEL-5): 1.41 µM (inactive)
- GI50 (HCC 2998): 3.1 µM (inactive)
